Structures are written as SMILES.

Ki data for six compounds are collected here from BindingDB's records for doi:10.1016/j.bmcl.2008.10.124 (Schering-Plough Research Institute, 2009).

The target of the assay is Genome polyprotein (Hepatitis C virus genotype 1a (isolate H77), UniProt P27958). The assay can be described thus: Continuous Spectrophotometric Assay. To be noted: pH 6.5; 30 °C. The protocol:
Proteolytic cleavage of the ester linkage between the Nva (L-norvaline) and the chromophore (PAP) was monitored for change in absorbance at 370 nm. Initial velocities were determined using linear regression and kinetic constants were obtained by fitting the data to the Michaelis-Menten equation.

Chain of Genome polyprotein (P27958 1027-1657 limits assumed): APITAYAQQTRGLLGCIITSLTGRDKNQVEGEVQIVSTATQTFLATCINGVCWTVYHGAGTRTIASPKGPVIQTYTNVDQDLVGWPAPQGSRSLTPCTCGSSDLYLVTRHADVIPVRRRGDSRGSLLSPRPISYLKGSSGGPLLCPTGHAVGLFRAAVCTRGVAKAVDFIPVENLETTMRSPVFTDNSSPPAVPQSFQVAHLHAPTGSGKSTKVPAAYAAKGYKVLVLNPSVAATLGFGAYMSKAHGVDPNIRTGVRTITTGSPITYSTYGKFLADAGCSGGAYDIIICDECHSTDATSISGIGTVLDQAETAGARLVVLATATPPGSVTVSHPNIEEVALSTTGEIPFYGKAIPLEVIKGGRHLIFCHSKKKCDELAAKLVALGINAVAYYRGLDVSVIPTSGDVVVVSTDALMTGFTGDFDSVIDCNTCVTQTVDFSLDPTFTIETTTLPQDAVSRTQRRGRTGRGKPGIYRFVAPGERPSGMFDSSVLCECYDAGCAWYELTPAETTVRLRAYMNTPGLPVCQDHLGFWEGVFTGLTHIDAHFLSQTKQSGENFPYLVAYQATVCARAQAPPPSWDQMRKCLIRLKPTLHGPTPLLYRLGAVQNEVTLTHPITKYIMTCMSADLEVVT

`CC[C@H](NC(=O)[C@@H]1[C@@H]2[C@H](CN1C(=O)[C@@H](NC(=O)N[C@H](CN(C)S(C)(=O)=O)C(C)(C)C)C(C)(C)C)C2(C)C)B1O[C@@H]2CC3CC(C3(C)C)[C@]2(C)O1` (stereo partly drawn) [(1R,2S,5S)-3-[(2S)-2-({[(2S)-1-[methane(methyl)sulfonamido]-3,3-dimethylbutan-2-yl]carbamoyl}amino)-3,3-dimethylbutanoyl]-6,6-dimethyl-N-[(1R)-1-[(2S,6R)-2,9,9-trimethyl-3,5-dioxa-4-boratricyclo[6.1.1.0^{2,6}]decan-4-yl]propyl]-3-azabicyclo[3.1.0]hexane-2-carboxamide] returned an inhibition constant (Ki) of 34 nM. In the case of `CC[C@H](NC(=O)[C@@H]1[C@@H]2[C@H](CN1C(=O)[C@@H](NC(=O)NC(C)(C)C)C(C)(C)C)C2(C)C)B1O[C@@H]2CC3CC(C3(C)C)[C@]2(C)O1` (stereo partly drawn) [(1R,2S,5S)-3-[(2S)-2-[(tert-butylcarbamoyl)amino]-3,3-dimethylbutanoyl]-6,6-dimethyl-N-[(1R)-1-[(2S,6R)-2,9,9-trimethyl-3,5-dioxa-4-boratricyclo[6.1.1.0^{2,6}]decan-4-yl]propyl]-3-azabicyclo[3.1.0]hexane-2-carboxamide] it was 500 nM. The result for `CN(C[C@@H](NC(=O)N[C@H](C(=O)N1C[C@H]2[C@@H]([C@H]1C(=O)N[C@@H](CC1CCC1)B1O[C@@H]3CC4CC(C4(C)C)[C@]3(C)O1)C2(C)C)C(C)(C)C)C(C)(C)C)S(C)(=O)=O` (stereo partly drawn) [(1R,2S,5S)-N-[(1R)-2-cyclobutyl-1-[(2S,6R)-2,9,9-trimethyl-3,5-dioxa-4-boratricyclo[6.1.1.0^{2,6}]decan-4-yl]ethyl]-3-[(2S)-2-({[(2S)-1-[methane(methyl)sulfonamido]-3,3-dimethylbutan-2-yl]carbamoyl}amino)-3,3-dimethylbutanoyl]-6,6-dimethyl-3-azabicyclo[3.1.0]hexane-2-carboxamide] reads 0.5 nM; that for `CC[C@H](NC(=O)C1[C@@H]2[C@H](CN1C(=O)[C@@H](NC(=O)NC(C)(C)C)C(C)(C)C)C2(C)C)B1O[C@@H]2CC3CC(C3(C)C)[C@]2(C)O1` (stereo partly drawn) [(1R,5S)-3-[(2S)-2-[(tert-butylcarbamoyl)amino]-3,3-dimethylbutanoyl]-6,6-dimethyl-N-[(1R)-1-[(2S,6R)-2,9,9-trimethyl-3,5-dioxa-4-boratricyclo[6.1.1.0^{2,6}]decan-4-yl]propyl]-3-azabicyclo[3.1.0]hexane-2-carboxamide], 380 nM; that for `CC(C)(C)NC(=O)N[C@H](C(=O)N1C[C@H]2[C@@H](C1C(=O)N[C@@H](CC1CCC1)B(O)O)C2(C)C)C(C)(C)C` (stereo partly drawn) [(1R,5S)-3-[(2S)-2-[(tert-butylcarbamoyl)amino]-3,3-dimethylbutanoyl]-N-[(1R)-2-cyclobutyl-1-(dihydroxyboranyl)ethyl]-6,6-dimethyl-3-azabicyclo[3.1.0]hexane-2-carboxamide], 10 nM. In the case of `CC(C)(C)NC(=O)N[C@H](C(=O)N1C[C@H]2[C@@H](C1C(=O)N[C@@H](CC1CCC1)B1O[C@@H]3CC4CC(C4(C)C)[C@]3(C)O1)C2(C)C)C(C)(C)C` (stereo partly drawn) [(1R,5S)-3-[(2S)-2-[(tert-butylcarbamoyl)amino]-3,3-dimethylbutanoyl]-N-[(1R)-2-cyclobutyl-1-[(2S,6R)-2,9,9-trimethyl-3,5-dioxa-4-boratricyclo[6.1.1.0^{2,6}]decan-4-yl]ethyl]-6,6-dimethyl-3-azabicyclo[3.1.0]hexane-2-carboxamide] it was 10 nM.
